Test results published in US10646475B2, “SHMT inhibitors” (The Trustees of Princeton University, priority 2015, dated 2020).
“Also recorded” adds a separate entry of the source. One block for each compound: values may come before it.

Experiments:
human SHMT1 = target: T1, human SHMT1 (Homo sapiens, UniProt P34896); test: SHMT1 in vitro coupled enzymatic assay (coupled with excess MTHFD2, NADH absorption at 340 nm); type: biochemical; conditions: for IC50: inhibition of initial reaction velocity
T1 sequence (P34896 1-483): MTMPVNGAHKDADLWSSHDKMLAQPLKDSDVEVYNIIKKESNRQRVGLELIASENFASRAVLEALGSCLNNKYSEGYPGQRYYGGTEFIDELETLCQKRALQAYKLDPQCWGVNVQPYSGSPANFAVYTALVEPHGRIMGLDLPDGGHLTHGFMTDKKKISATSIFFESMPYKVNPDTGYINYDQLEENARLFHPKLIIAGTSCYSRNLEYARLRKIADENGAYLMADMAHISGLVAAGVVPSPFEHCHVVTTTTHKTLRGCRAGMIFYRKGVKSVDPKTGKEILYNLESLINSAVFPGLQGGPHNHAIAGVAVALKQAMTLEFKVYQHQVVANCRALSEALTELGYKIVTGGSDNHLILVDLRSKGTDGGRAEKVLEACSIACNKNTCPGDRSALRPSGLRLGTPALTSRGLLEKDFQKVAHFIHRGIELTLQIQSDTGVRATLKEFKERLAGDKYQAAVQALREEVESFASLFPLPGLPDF

human SHMT2 = target: T2, human SHMT2 (Homo sapiens, UniProt P34897); test: SHMT2 in vitro coupled enzymatic assay (coupled with excess MTHFD2, NADH absorption at 340 nm); type: biochemical; conditions: for IC50: inhibition of initial reaction velocity
T2 sequence (P34897 30-504): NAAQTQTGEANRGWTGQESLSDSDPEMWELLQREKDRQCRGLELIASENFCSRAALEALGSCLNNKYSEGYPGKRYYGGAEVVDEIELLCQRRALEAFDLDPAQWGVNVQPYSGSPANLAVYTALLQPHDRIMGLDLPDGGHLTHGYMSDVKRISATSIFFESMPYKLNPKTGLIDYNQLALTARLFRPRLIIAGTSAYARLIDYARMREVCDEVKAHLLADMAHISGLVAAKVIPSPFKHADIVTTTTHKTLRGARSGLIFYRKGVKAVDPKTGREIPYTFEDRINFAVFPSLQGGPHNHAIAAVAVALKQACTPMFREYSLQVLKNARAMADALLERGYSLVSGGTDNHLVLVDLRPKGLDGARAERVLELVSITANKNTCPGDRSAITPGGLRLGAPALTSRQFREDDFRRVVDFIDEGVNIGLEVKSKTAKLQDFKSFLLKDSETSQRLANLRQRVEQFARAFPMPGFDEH

human MTHFD2 = target: T3, human MTHFD2 (Homo sapiens, UniProt P13995); test: MTHFD2 in vitro assay (rate of NADH formation at 340 nm); type: biochemical; conditions: FIG. 3(c)
T3 sequence (P13995 36-350): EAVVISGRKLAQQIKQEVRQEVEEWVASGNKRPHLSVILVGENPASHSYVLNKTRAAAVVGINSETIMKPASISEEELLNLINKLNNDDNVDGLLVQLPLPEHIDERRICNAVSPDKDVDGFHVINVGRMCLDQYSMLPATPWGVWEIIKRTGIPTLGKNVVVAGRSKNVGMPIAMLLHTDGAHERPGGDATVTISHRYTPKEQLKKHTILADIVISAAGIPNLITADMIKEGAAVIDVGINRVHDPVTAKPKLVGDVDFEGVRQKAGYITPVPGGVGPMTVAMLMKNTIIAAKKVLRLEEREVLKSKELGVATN
From the text: For the MTHFD2 in vitro assay (FIG. 3(c)), the rate of NADH formation was directly monitored at 340 nm.

[1] = test system: SHMT serine metabolic activity in SHMT2 expressing human cells; test: Isotope labeling of serine metabolism in cells (labeled serine, LC-MS); type: cell-based; conditions: uniformly labeled serine, FIG. 2(c)
Description: Using 2,3,3-^2H3-serine (D3-serine) as a tracer, mitochondrial flux was measured by quantifying the labeling pattern of dTTP, a downstream product of dTMP. […] This assay was used to examine mitochondrial serine flux and the effect of compounds of the disclosure on mitochondrial serine flux, in either wildtype or mutant cells.
Uniformly labeled serine is metabolized into various isoptomers in WT cells by the forward and reverse enzymatic activity of SHMT.

[2] = test system: human cells expressing SHMT2; test: Measurement of AICAR, marker for one-carbon unit stress, in cells; type: cell-based; conditions: treatment for 24 hours, increasing concentrations, FIG. 2(b)
Description: HEK-293T cells were cultured in 6-well plates in Dulbecco's modified eagle media (DMEM) without pyruvate with 10% dialysed fetal bovine serum in 5% CO2 at 37° C. […] Growth was quenched and metabolites extracted by aspirating media, washing cells with cold PBS, and immediately adding MeOH/water (80:20 at −80° C.). Supernatants from two rounds of extraction were combined, dried under N2, resuspended in water, placed in a 4° C. autosampler, and analyzed by reverse-phase ion-paring chromatography negative-mode electrospray-ionization high-resolution MS on a stand-alone orbitrap.
Generation of AICAR provides an assay to evaluate one-carbon unit stress. Inhibition of SHMT2 in cells decreases serine metabolism and leads to one-carbon stress. […] Such cells show high constitutive levels of 5-aminoimidazole-4-carboxamide ribonucleotide (AICAR), a marker for one-carbon unit stress, when cultured in media (left bar in FIG. 2(a)). This can be rescued by exogenous treatment with sodium formate (right bar in FIG. 2(a)).
(*) indicates AICAR was below the limit of detection.

[3] = test system: MTHFD2 knock-out HEK293T cells; test: Cell growth assay (resazurin), MTHFD2 knock-out 293T; type: cell-based, human; conditions: varying concentrations
Description: (§1) Inhibitors of SHMT were evaluated in wildtype, SHMT2 knock-out, and MTHFD2 knock-out 293T cells (FIG. 6(a) and FIG. 6(b)).
(§2) The described cell lines used in Examples 9-11 were cultured in 96-well plates in Dulbecco's modified eagle media (DMEM) without pyruvate (CELLGRO) with 10% dialysed fetal bovine serum (Invitrogen) in 5% CO2 at 37° C. Approximately 2,500 cells were plated in each well in 90 uL of media. After 24 hours cells were treated with various concentrations of inhibitor (time=0 hours), with or without formate. Growth was assessed at multiple time points (time=0, 24, 48, 72 hours) through measurement of fluorescence at 595 nm (excitation at 535 nm) on a BioTek micro titer plate reader after incubation with resazurin (0.01 mg/mL for 1.5 hours). IC50 curves were generated from percent inhibition of growth at 72 hours.

[4] = test system: HCT116 human colon carcinoma cells; test: Cancer cell growth assay (resazurin), HCT116; type: cell-based; conditions: HCT116, varying concentrations, FIG. 7
Description: (§3) Inhibitors of SHMT were evaluated in various cancer cell lines. […] This cancer cell line comprises (harbors) a mutation in a component of the mitochondrial folate pathway. Specifically, one or more cells in this line comprise a mutation in the downstream mitochondrial folate enzyme, MTHFD1L.
as §2

[5] = test system: 8988T pancreatic cancer cells; test: Cancer cell growth assay (resazurin), 8988T; type: cell-based, human; conditions: 8988T (MTHFD1L mutation), varying concentrations, FIG. 7
Description: as §3, §2

[6] = test system: SHMT2 knock-out HEK293 cells; test: Cell growth assay (resazurin), SHMT2 knock-out 293T; type: cell-based, human; conditions: varying concentrations
Description: HEK293T cell lines mutant for SHMT1 and SHMT2 were created using the CRISPR-Cas9 system following standard published protocols. Single clones from successful transfections were grown up, genotyped and characterized.
as §1, §2

HEK293T cells = test: Cell growth assay (resazurin), wild-type HEK293T; type: cell-based, human; conditions: for inhibition of cell growth: varying concentrations
Description: HEK293T cells were cultured in 96-well plates in Dulbecco's modified eagle media (DMEM) without pyruvate with 10% dialysed fetal bovine serum (Invitrogen) in 5% CO2 at 37° C. 24 hours after plating, cells were treated with various concentrations of inhibitor. Growth was serially assessed using the resazurin (‘AlamarBlue’) assay.
as §2

SMILES: CC(C)c1n[nH]c2c1C(c1cc(C(F)(F)F)cc(C(F)(F)F)c1)(C(C)C)C(C#N)=C(N)O2 (stereo not shown) [KDG-12]
IC50 (human SHMT1; table of Example 6): 9.3 nM | IC50 (human SHMT2; table of Example 6): 71 nM

SMILES: Cc1n[nH]c2c1C(c1cc(Cl)cc(Cl)c1)(C1CCC1)C(C#N)=C(N)O2 (racemic) [HK-10]
IC50 (human SHMT2; Table A): 159 nM

SMILES: Cc1nn(C)c2c1C(c1cc(C(F)(F)F)cc(C(F)(F)F)c1)(C(C)C)C(C#N)=C(N)O2 (stereo not shown) [KDG-4]
IC50 (human SHMT1; table of Example 6): > 5000 nM | IC50 (human SHMT2; table of Example 6): > 5000 nM

SMILES: Cc1nn(-c2ccccc2)c2c1C(c1cc(C(F)(F)F)cc(C(F)(F)F)c1)(C(C)C)C(C#N)=C(N)O2 (stereo not shown) [KDG-5]
IC50 (human SHMT1; table of Example 6): > 5000 nM | IC50 (human SHMT2; table of Example 6): > 5000 nM

SMILES: Cc1n[nH]c2c1C(c1cc(Cl)cc(C(F)(F)F)c1)(C1CCC1)C(C#N)=C(N)O2 (stereo not shown) [HK-11]
IC50 (human SHMT2; Table A): 100 nM | IC50 (human SHMT2; table of Example 6): 100 nM

SMILES: Cc1n[nH]c2c1C(c1cc(C(F)(F)F)cc(C(F)(F)F)c1)(C1CCC1)C(C#N)=C(N)O2 (stereo not shown) [HK-12]
IC50 (human SHMT1; Table A): 206 nM | IC50 (human SHMT1; table of Example 6): 206 nM | IC50 (human SHMT2; Table A): 168 nM | IC50 (human SHMT2; table of Example 6): 168 nM

SMILES: Cc1n[nH]c2c1C(c1cc(C(F)(F)F)cc(C(F)(F)F)c1)(C(C)C)C(C#N)=C(N)O2 (single isomer, unassigned) [HK-16 (PK-1)]
inhibition of cell growth ([3]; FIG. 6, listed as HK-16-P1): significantly less or no effect | inhibition of cell growth ([3]; FIG. 6, listed as Peak 1): Some, although a lower degree of activity | inhibition of cancer cell growth ([4]; listed as HK-16-P1): does not inhibit cell growth | inhibition of cell growth ([6]; FIG. 6, listed as HK-16-P1): significantly less or no effect | inhibition of cell growth ([6]; FIG. 6, listed as Peak 1): Some, although a lower degree of activity | inhibition of cell growth (HEK293T cells; FIG. 5, 6): not inhibited | inhibition of cell growth (HEK293T cells; FIG. 5, 6, listed as HK-16-P1): significantly less or no effect | inhibition of cell growth (HEK293T cells; FIG. 5, 6, listed as Peak 1): not appreciably inhibited; also recorded: little or no activity

Further lines, with some results ahead:

IC50 (human SHMT2; Table A): 1190 nM | IC50 (human SHMT2; table of Example 6): 1190 nM
SMILES: Cc1n[nH]c2c1C(c1cccc(Cl)c1)(C1CCC1)C(C#N)=C(N)O2 (stereo not shown) [HK-3]

IC50 (human SHMT2; Table A): 4580 nM | IC50 (human SHMT2; table of Example 6): 4580 nM
SMILES: COc1cccc(C2(C(C)C)C(C#N)=C(N)Oc3[nH]nc(C)c32)c1 (stereo not shown) [HK-6]

IC50 (human SHMT1; Table A): 20 nM | inhibition of human MTHFD2 in enzymatic assays (human MTHFD2): do not inhibit | IC50 (human SHMT2; Table A): 35 nM
SMILES: Cc1n[nH]c2c1C(c1cc(Cl)cc(C(F)(F)F)c1)(C(C)C)C(C#N)=C(N)O2 (racemic) [HK-15]

inhibition of human MTHFD2 in enzymatic assays (human MTHFD2): do not inhibit
SMILES: Cc1n[nH]c2c1C(c1cc(C(F)(F)F)cc(C(F)(F)F)c1)(C(C)C)C(C#N)=C(N)O2 (racemic) [HK-16]
SHMT serine metabolic activity in cells [1]: inhibited in cells by HK-16 in a dose-dependent manner | AICAR accumulation [2]: AICAR accumulation in a dose-dependent manner

activity against SHMT1 in an in vitro enzyme assay (human SHMT1; FIG. 4(b)): active
SMILES: Cc1n[nH]c2c1C(c1cc(C(F)(F)F)cc(C(F)(F)F)c1)(C(C)C)C(C#N)=C(N)O2 (stereo not shown) [HK-16 (PK-2)]
inhibition of cell growth ([3]; FIG. 6, listed as HK-16-P2): active; also recorded: increased sensitivity to inhibition | inhibition of cell growth ([3]; FIG. 6, listed as Peak 2): inhibited cell growth | anti-SHMT2 activity of resolved enantiomers of HK-16 (human SHMT2; FIG. 4(a)): confined to the enantiomer represented by “Peak 2” | inhibition of cancer cell growth ([4]; listed as HK-16-P2): inhibits cancer cell growth; also recorded: inhibited growth | inhibition of cancer cell growth ([5]; listed as HK-16 (peak 2)): more sensitive | inhibition of cancer cell growth ([5]; listed as HK-16-P2): significantly more sensitive; also recorded: inhibited growth | inhibition of cell growth ([6]; FIG. 6, listed as HK-16-P2): active; also recorded: increased sensitivity to inhibition | inhibition of cell growth ([6]; FIG. 6, listed as Peak 2): inhibited cell growth | rescue of growth inhibitory effects by formate (HEK293T cells; compound at 10 μM, co-culture with formate at 1 mM, FIG. 8): rescued | inhibition of cell growth (HEK293T cells; FIG. 5, 6, listed as HK-16-P2): active | inhibition of cell growth (HEK293T cells; FIG. 5, 6, listed as Peak 2): inhibited in a dose-dependent manner; also recorded: inhibited cell growth

inhibition of human MTHFD2 in enzymatic assays (human MTHFD2): do not inhibit
SMILES: COc1cccc(C2(C3CCC3)C(C#N)=C(N)Oc3[nH]nc(C)c32)c1 (racemic) [HK-2]

IC50 (human SHMT2; Table A): 400 nM | IC50 (human SHMT2; table of Example 6): 400 nM
SMILES: Cc1n[nH]c2c1C(c1cccc(Cl)c1)(C(C)C)C(C#N)=C(N)O2 (stereo not shown) [HK-7]

IC50 (human SHMT1; Table A): 67 nM | IC50 (human SHMT2; Table A): 131 nM
SMILES: Cc1n[nH]c2c1C(c1cc(Cl)cc(Cl)c1)(C(C)C)C(C#N)=C(N)O2 (racemic) [HK-14]

IC50 (human SHMT2; Table A): 500 nM | IC50 (human SHMT2; table of Example 6): 500 nM
SMILES: COc1cc(Cl)cc(C2(C(C)C)C(C#N)=C(N)Oc3[nH]nc(C)c32)c1 (stereo not shown) [HK-13]

IC50 (human SHMT2; Table A): 3460 nM | IC50 (human SHMT2; table of Example 6): 3460 nM
SMILES: COc1cc(Cl)cc(C2(C3CCC3)C(C#N)=C(N)Oc3[nH]nc(C)c32)c1 (stereo not shown) [HK-9]
